Where two headings read alike, the source gives them in different places. Non-standard residues stand in square brackets, D forms with d. Residues, ends and D or L forms follow the SMILES beside them.
Assays:
[1] = counter-ions studied during the initial salt screening; cited from earlier work
[2] = Exposure of amorphous salts to humidity (saturated NaCl solution, 75% RH at room temperature) for stability assessment; type: physicochemical; conditions: for behaviour on exposure to 75% RH: a week of exposure (repeat)
Excerpt: Although amorphous, salts that were produced earlier were exposed to Humidity through saturated NaCl solution (75% RH at room temperature) for stability assessment.
Other salts of SBT-020 that were made during the initial screening that were missing in Table 13 were exposed to 75% RH. The missing salts were Maleate, Salicylate, Tartarate (repeat), Succinate and Phosphate (repeat).

[3] = Qualitative solubility in water; type: physicochemical; conditions: at RT
Excerpt: No signs of acetic acid were observed.

Molecule | pKa1 [1] | behaviour on exposure to 75% RH [2] | other results
O=S(=O)(O)c1ccccc1 [Benzene sulfonic acid] | −2.8 | – | –
Br [Hydrobromic acid] | −8 | – | –
O=C(O)CC(O)C(=O)O (stereo not shown) [Malic acid] | 3.4 | – | pKa2 [1]: 5.2
N=C(N)NCCC[C@@H](NC(=O)[C@@H](N)Cc1ccccc1)C(=O)N[C@@H](Cc1ccccc1)C(=O)N[C@@H](CCCCN)C(N)=O [Tosylate] (H-F[dR]FK-NH2) | – | – | physical stability upon humidity exposure ([2]; saturated NaCl solution, 75% RH at room temperature, amorphous salts): demonstrated physical stability upon humidity exposure; physical stability upon humidity exposure ([2]; saturated NaCl solution, 75% RH at room temperature, amorphous salts, listed as tosylate): best stability under humidity exposure; solubility [3]: > 100 mg/mL
Phosphate | – | became wet, though they did not deliquesce even after a week | physical stability upon humidity exposure [2]: demonstrated physical stability upon humidity exposure
Tartarate | – | became wet, though they did not deliquesce even after a week | –

Source: patent US11325943B2, “Crystalline salt forms of SBT-20” (priority 2017, dated 2022)
